From ChEMBL document CHEMBL4814071, “Synthesis and antibacterial study of cell-penetrating peptide conjugated trifluoroacetyl and thioacetyl lysine modified peptides” (Eur J Med Chem, 2021)
Where a name gives a salt, the structure may show the parent alone. Active and inactive are the calls of the source. The calls are words filed in the database; no cut-off is given here. *1 amine or outer side, *2 acyl side, *3 side chain or, on linkers, in order; H or OH if unused. Where a SMILES comes first, the peptide text is derived from it. Side-chain parts run from the residue outwards. The star is where a group is joined. NH(2-Me-phenyl) = Cc1ccccc1N*; CO = O=C([*:1])[*:2]; Tfa = O=C(C(F)(F)F)*

Key:
[1] = Inhibition of transcriptional machinery using Puc19-lacCONS plasmid DNA and Escherichia coli RNA polymerase-sigma70 holoenzyme at 10 uM incubated for 35 mins followed by NTP addition for 30 mins by spectrofluorometer analysis; assay type: functional; conditions: time 65.0 min
[2] = test system: Staphylococcus aureus; assay: Potentiation of streptomycin-induced antibacterial activity against Staphylococcus aureus assessed as streptomycin MIC incubated for 24 hrs by microplate reader method; assay type: functional
[3] = test system: Cell membrane; assay: Disruption of membrane integrity in Staphylococcus aureus at 2 times MIC by TEM analysis
[4] = test system: Staphylococcus aureus; assay: Potentiation of streptomycin-induced antibacterial activity against Staphylococcus aureus assessed as fold change in streptomycin MIC incubated for 24 hrs by microplate reader method; assay type: functional
[5] = test system: Lipid bilayer; assay: Binding affinity to bacterial inner membrane mimic DOPE/DOPG (3:1) large unilamellar vesicles assessed as calcein leakage at 20 uM by fluorescence based assay
[6] = test system: Escherichia coli; assay: Potentiation of polymyxin B-induced antibacterial activity against Escherichia coli assessed as polymyxin B MIC incubated for 24 hrs by microplate reader method; assay type: functional
[7] = test system: Staphylococcus aureus; assay: Antibiofilm activity against Staphylococcus aureus assessed as biofilm eradication at 2XMBEC incubated for 12 hrs by SYTO9/PI staining based microscopic analysis; assay type: functional, organism-based
[8] = test system: Escherichia coli; assay: Antibiofilm activity against Escherichia coli assessed as biofilm eradication incubated for 24 hrs by crystal violet staining assay; assay type: functional
[9] = test system: Pseudomonas aeruginosa; assay: Potentiation of polymyxin B-induced antibacterial activity against Pseudomonas aeruginosa assessed as polymyxin B MIC incubated for 24 hrs by microplate reader method; assay type: functional
[10] = test system: Staphylococcus aureus; assay: Antibiofilm activity against Staphylococcus aureus assessed as biofilm eradication incubated for 24 hrs by crystal violet staining assay; assay type: functional
[11] = Hemolytic activity against mouse RBC at 1000 uM measured after 1 hr by microplate reader analysis; assay type: cell-based, Erythrocyte; conditions: mouse red blood cells (erythrocytes), read-out: Activity
[12] = test system: Lipid bilayer; assay: Binding affinity to bacterial inner membrane mimic DOPE/DOPG (3:1) large unilamellar vesicles assessed as calcein leakage at 2.5 uM by fluorescence based assay
[13] = test system: Lipid bilayer; assay: Binding affinity to mammalian membrane mimic DOPC/40% cholesterol assessed as calcein leakage at 20 uM by fluorescence based assay; assay type: ADME
[14] = test system: Escherichia coli; assay: Antibiofilm activity against Escherichia coli assessed as biofilm eradication at 2XMBEC incubated for 12 hrs by SYTO9/PI staining based microscopic analysis; assay type: functional, organism-based
[15] = test system: Cell membrane; assay: Disruption of membrane integrity in Staphylococcus aureus at 2 times MIC measured after 20 mins by SEM analysis
[16] = test system: Staphylococcus aureus; assay: Antibacterial activity against Staphylococcus aureus assessed as reduction in microbial growth after 24 hrs in presence of streptomycin by microplate reader method; assay type: functional
[17] = test system: Cell membrane; assay: Disruption of membrane integrity in Escherichia coli assessed as cellular leakage at 2 times MIC by TEM analysis
[18] = test system: Lipid bilayer; assay: Binding affinity to bacterial inner membrane mimic POPE/POPG (3:1) LUVs assessed as increase in intensity by one-dimensional 19F NMR based analysis
[19] = test system: Staphylococcus aureus; assay: Synergistic antibacterial activity against Staphylococcus aureus assessed as fractional inhibitory concentration index incubated for 24 hrs in presence of streptomycin; assay type: functional
[20] = test system: Cell membrane; assay: Disruption of membrane integrity in Escherichia coli at 2 times MIC measured after 20 mins by SEM analysis
[21] = test system: Escherichia coli; assay: Antibiofilm activity against Escherichia coli assessed as as inhibition of biofilm formation incubated for 48 hrs by crystal violet staining assay; assay type: functional
[22] = test system: Staphylococcus aureus; assay: Antibacterial activity against Staphylococcus aureus assessed as reduction in microbial growth after 24 hrs by microplate reader method; assay type: functional
[23] = test system: Escherichia coli; assay: Antibacterial activity against Escherichia coli assessed as reduction in microbial growth after 24 hrs by microplate reader method; assay type: functional
[24] = test system: HeLa; assay: Cytotoxicity against human HeLa cells assessed as reduction in cell viability incubated for 48 hrs by MTT assay; assay type: cell-based
[25] = test system: Pseudomonas aeruginosa; assay: Antibacterial activity against Pseudomonas aeruginosa assessed as reduction in microbial growth after 24 hrs in presence of polymyxin B by microplate reader method; assay type: functional
[26] = test system: Escherichia coli; assay: Antibacterial activity against Escherichia coli assessed as reduction in microbial growth after 24 hrs in presence of polymyxin B by microplate reader method; assay type: functional
[27] = test system: Pseudomonas aeruginosa; assay: Antibacterial activity against Pseudomonas aeruginosa assessed as reduction in microbial growth after 24 hrs by microplate reader method; assay type: functional
[28] = test system: Pseudomonas aeruginosa; assay: Synergistic antibacterial activity against Pseudomonas aeruginosa assessed as fractional inhibitory concentration index incubated for 24 hrs in presence of Polymyxin B; assay type: functional
[29] = test system: BE(2)-C; assay: Cytotoxicity against human BE(2)-C cells assessed as reduction in cell viability incubated for 48 hrs by MTT assay; assay type: cell-based
[30] = test system: Escherichia coli; assay: Synergistic antibacterial activity against Escherichia coli assessed as fractional inhibitory concentration index incubated for 24 hrs in presence of Polymyxin B; assay type: functional
[31] = target: NAD-dependent histone deacetylase SIR2 (Saccharomyces cerevisiae S288c) (UniProt P06700); assay: Inhibition of yeast sirtuin2-mediated Ura3 transcriptional silencing at telomeric locus assessed as yeast killing at 50 uM incubated for 72 hrs in presence of FOA by absorbance based analysis
[32] = test system: Staphylococcus aureus; assay: Antibiofilm activity against Staphylococcus aureus assessed as inhibition of biofilm formation incubated for 48 hrs by crystal violet staining assay; assay type: functional
[33] = test system: Cell membrane; assay: Disruption of membrane integrity in Escherichia coli at 2 times MIC by TEM analysis
[34] = Induction of yeast killing at 50 uM incubated for 72 hrs in presence of Ura3 and absence of FOA by absorbance based analysis; conditions: saccharomyces cerevisiae

Chain of NAD-dependent histone deacetylase SIR2 (Saccharomyces cerevisiae S288c) (P06700 whole entry): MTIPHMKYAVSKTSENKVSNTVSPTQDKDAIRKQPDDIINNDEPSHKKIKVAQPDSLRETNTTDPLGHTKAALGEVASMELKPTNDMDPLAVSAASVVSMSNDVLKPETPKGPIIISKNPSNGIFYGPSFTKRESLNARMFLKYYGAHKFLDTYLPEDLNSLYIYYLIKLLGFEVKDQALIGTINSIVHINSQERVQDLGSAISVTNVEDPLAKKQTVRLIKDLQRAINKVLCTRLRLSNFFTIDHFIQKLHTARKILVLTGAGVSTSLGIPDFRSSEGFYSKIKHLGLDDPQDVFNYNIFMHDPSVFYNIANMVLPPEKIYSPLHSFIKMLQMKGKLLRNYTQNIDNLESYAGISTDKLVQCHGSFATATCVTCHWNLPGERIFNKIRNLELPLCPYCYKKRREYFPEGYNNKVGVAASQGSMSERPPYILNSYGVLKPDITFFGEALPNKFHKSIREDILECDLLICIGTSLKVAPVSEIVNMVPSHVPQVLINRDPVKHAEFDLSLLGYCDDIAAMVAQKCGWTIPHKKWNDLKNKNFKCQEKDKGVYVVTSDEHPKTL

MIC [2] [µM]	Activity [3]	Activity [5]	MIC [6] [µM]	MIC [9] [µM]	Activity [12] [%]	Activity [13] [%]	Activity [15]	MIC [16] [µM]	Activity [17]	MIC [22] [µM]	MIC [23] [µM]	MIC [27] [µM]	SMILES	inhibition [1] [%]	fold change (FC) [4]	Activity [7]	MBEC [8] [µM]	MBEC [10] [µM]	hemolysis at 1 h, 1000 µM [11] [%]	Activity [14]	other results
0.38	Active	Active	0.1	0.05	90	< 20	Active	0.05	Active	0.2	1.5	25	CC(=O)N[C@@H](Cc1ccc(O)cc1)C(=O)NCC(=O)N[C@@H](CCCNC(=N)N)C(=O)N[C@@H](CCCCN)C(=O)N[C@@H](CCCCN)C(=O)N[C@@H](CCCNC(=N)N)C(=O)N[C@@H](CCCNC(=N)N)C(=O)N[C@@H](CCC(N)=O)C(=O)N[C@@H](CCCNC(=N)N)C(=O)N[C@@H](CCCNC(=N)N)C(=O)N[C@@H](CCCNC(=N)N)C(=O)NCC(=O)NCC(=O)NCC(=O)N[C@@H](CCCCN)C(=O)NCC(=O)N[C@@H](CC(C)C)C(=O)N[C@@H](CCCNC(=N)N)C(=O)N[C@@H](CCCCNC(=O)C(F)(F)F)C(=O)N[C@@H](Cc1ccccc1)C(=O)NCC(=O)N[C@@H](C)C(=O)N[C@@H](CCCCNC(=O)C(F)(F)F)C(=O)N[C@@H](CCCNC(=N)N)C(=O)N[C@@H](Cc1cnc[nH]1)C(=O)N[C@@H](CCCNC(=N)N)C(=O)N[C@@H](CS)C(N)=O (Ac-YGRKKRRQRRRGGGKGLRK(Tfa)FGAK(Tfa)RHRC-NH2)	100	6	Active	62.5	3.2	< 5	Active	Activity [18]: Active; fractional inhibitory concentration index (FICI) [19]: 0.22; Activity [20]: Active; MBIC [21]: 15.6 µM; IC50 [24]: 31.6 µM; MIC [25]: 6.25 µM; MIC [26]: 0.63 µM; fractional inhibitory concentration index (FICI) [28]: 0.3; IC50 [29]: 23.4 µM; fractional inhibitory concentration index (FICI) [30]: 0.73; inhibition [31]: Active; MBIC [32]: 0.8 µM; Activity [33]: Active
–	–	–	–	–	–	–	–	–	–	0.2	1.5	25	CC(=O)N[C@@H](Cc1ccc(O)cc1)C(=O)NCC(=O)N[C@@H](CCCNC(=N)N)C(=O)N[C@@H](CCCCN)C(=O)N[C@@H](CCCCN)C(=O)N[C@@H](CCCNC(=N)N)C(=O)N[C@@H](CCCNC(=N)N)C(=O)N[C@@H](CCC(N)=O)C(=O)N[C@@H](CCCNC(=N)N)C(=O)N[C@@H](CCCNC(=N)N)C(=O)N[C@@H](CCCNC(=N)N)C(=O)NCC(=O)NCC(=O)NCC(=O)N[C@@H](CCCCN)C(=O)NCC(=O)N[C@@H](CC(C)C)C(=O)N[C@@H](CCCNC(=N)N)C(=O)N[C@@H](CCCCNC(=O)Nc1ccccc1C)C(=O)N[C@@H](Cc1ccccc1)C(=O)NCC(=O)N[C@@H](C)C(=O)N[C@@H](CCCCN)C(=O)N[C@@H](CCCNC(=N)N)C(=O)N[C@@H](Cc1cnc[nH]1)C(=O)N[C@@H](CCCNC(=N)N)C(=O)N[C@@H](CS)C(=O)O (Ac-YGRKKRRQRRRGGGKGLRK([CO-NH(2-Me-phenyl)])FGAKRHRC-OH)	–	–	–	–	–	–	–	–
0.38	Active	Active	0.1	0.05	90	< 20	Active	0.05	Active	0.2	1.5	25	CC(=O)N[C@@H](Cc1ccc(O)cc1)C(=O)NCC(=O)N[C@@H](CCCNC(=N)N)C(=O)N[C@@H](CCCCN)C(=O)N[C@@H](CCCCN)C(=O)N[C@@H](CCCNC(=N)N)C(=O)N[C@@H](CCCNC(=N)N)C(=O)N[C@@H](CCC(N)=O)C(=O)N[C@@H](CCCNC(=N)N)C(=O)N[C@@H](CCCNC(=N)N)C(=O)N[C@@H](CCCNC(=N)N)C(=O)NCC(=O)NCC(=O)NCC(=O)N[C@@H](CCCCN)C(=O)NCC(=O)N[C@@H](CC(C)C)C(=O)N[C@@H](CCCNC(=N)N)C(=O)N[C@@H](CCCCNC(=O)C(F)(F)F)C(=O)N[C@@H](Cc1ccccc1)C(=O)NCC(=O)N[C@@H](C)C(=O)N[C@@H](CCCCN)C(=O)N[C@@H](CCCNC(=N)N)C(=O)N[C@@H](Cc1cnc[nH]1)C(=O)N[C@@H](CCCNC(=N)N)C(=O)N[C@@H](CS)C(=O)O (Ac-YGRKKRRQRRRGGGKGLRK(Tfa)FGAKRHRC-OH)	100	6	Active	62.5	3.2	< 5	Active	Activity [18]: Active; fractional inhibitory concentration index (FICI) [19]: 0.22; Activity [20]: Active; MBIC [21]: 15.6 µM; IC50 [24]: 20.2 µM; Activity [34]: Toxic; MIC [25]: 12.5 µM; MIC [26]: 0.63 µM; fractional inhibitory concentration index (FICI) [28]: 0.42; IC50 [29]: 17.4 µM; fractional inhibitory concentration index (FICI) [30]: 0.73; inhibition [31]: Active; MBIC [32]: 0.8 µM; Activity [33]: Active
